According to patent publication US10390553B2, “Food containing histidine and use thereof” (AJINOMOTO CO., INC., priority 2013, dated 2019):

What was measured:
[1] = system: males feeling decrease in the sleep quality and fatigue; experiment: Cognitive function measurement task CogHealth, histidine ingestion for 14 days; type: in vivo, human; settings: 1.65 g daily for 14 days vs control food
Source text: (§1) Twenty males of 45 years old to less than 65 years old, who received total evaluation of not less than 17 points in the “self-diagnosis fatigue questionnaire” (Fatigue Science Laboratory Inc.) performed in advance, felt decrease in the quality of sleep (generally PSQI≥6), and obtained fatigue factor T scores of not less than 60 points in POMS, were selected, and randomly divided into 2 groups (10 per group). A crossover test, including ingesting histidine and control food (equal volume of cellulose) each for 14 days, was performed in each group. As shown in the experiment protocol of FIG. 4A, the test subjects ingested capsules containing 1.65 g of L-histidine as a daily ingestion amount (5 capsules (hard capsule #2 WHITE OP B/C) containing 0.33 g of L-histidine alone), or control sample capsules (5 capsules containing equal volume of cellulose) for 14 days. After the completion of 14 day ingestion, a 14 day resting period was taken. After the resting period, they ingested the capsules not ingested before the resting period. […]

[2] = system: clock genes (Bmal1, Dbp, Per1, Per2, Reverb-alpha); experiment: Oscillation of expression of clock genes of the auricle in aged mice; type: in vivo, mouse; settings: aged mice 22 to 24 months, 1.2 w/v % L-histidine solution for 9 days
Method: Aged mice of 22 to 24 months of age being reared under generally light and dark environment were divided into two groups, and the effect of the ingestion of histidine drinking solution was studied. The histidine ingestion period was set to 9 days, during which period aqueous L-histidine solution (corresponding to L-histidine 1.2 w/v %) was given for ingestion by mounting a water inlet on a 50 mL centrifuge tube, whereby about 1.2 g/kg body weight of histidine was ingested per day. In the histidine ingestion group of aged mice, samples were taken from the auricle by changing the position over time on 8 to 9 days from the start of the ingestion of the aqueous histidine solution, and 5 kinds of clock genes (Bmal1, Dbp, Per1, Per2, Reverb-alpha) of the peripheral tissue were analyzed as an index of biorhythm. In the simultaneous stage, the clock genes of the auricle of the aged mice and young mice (4 months old) that ingested tap water were analyzed as comparison targets. […] To be specific, gene expression of the clock gene was quantified at each time point, and the amplitudes and phase of the oscillation of expression of the clock gene of each individual were determined by approximation on the cosine curve. […]

[3] = system: males feeling decrease in the quality of sleep and fatigue; experiment: VAS questionnaires relating to mental energy, single histidine ingestion; type: in vivo, human; settings: single ingestion 1.65 g
Source text: (§2) Twenty males of 45 years old to less than 65 years old, who received total evaluation of not less than 17 points in the “self-diagnosis fatigue questionnaire” (Fatigue Science Laboratory Inc.) performed in advance, felt decrease in the quality of sleep (generally PSQI≥6), and obtained fatigue factor T scores of not less than 60 points in POMS, were selected, and randomly divided into 2 groups (10 per group). The effect of single ingestion of histidine and control food (equal volume of cellulose) was compared in each group. As shown in the experiment protocol of FIG. 5A, the test subjects took the same meals for 3 days before the experiment, fasted for 10 to 14 hr, and ingested capsules containing 1.65 g of L-histidine as a single ingestion amount (5 capsules (hard capsule #2 WHITE OP B/C) containing 0.33 g of L-histidine alone), or control sample capsules (5 capsules containing equal volume of cellulose). Before and 1 hr after ingestion of capsules, the test subjects answered the VAS questionnaires (fatigue, depression, vague sense, drowsiness, clear thinking, motivation, attentiveness, concentration) relating to mental energy, and cognitive function measurement task CogHealth (under conditions with higher difficulty by simultaneously including mental arithmetic task as well) to measure recognition. Furthermore, they answered VAS questionnaires after completion of CogHealth.

[4] = system: males feeling decrease in the quality of sleep and fatigue; experiment: Cognitive function measurement task CogHealth, single histidine ingestion; type: in vivo, human; settings: single ingestion 1.65 g, 1 hr after ingestion, vs control food
Source text: as §2

[5] = system: males feeling decrease in the quality of sleep and fatigue; experiment: Safety of histidine ingestion: general properties, hematology, blood biochemistry; type: in vivo, human; settings: 2 weeks continuous and single, 1.65 g
Source text: Twenty males of 45 years old to less than 65 years old, who received total evaluation of not less than 17 points in the “self-diagnosis fatigue questionnaire” (Fatigue Science Laboratory Inc.) performed in advance, felt decrease in the quality of sleep (generally PSQI≥6), and obtained fatigue factor T scores of not less than 60 points in POMS, were selected, and randomly divided into 2 groups (10 per group). A crossover test, including ingesting histidine and control food (equal volume of cellulose) each for 14 days, was performed in each group.
As shown in the experiment protocol of FIG. 4A, the test subjects ingested capsules containing 1.65 g of L-histidine as a daily ingestion amount (5 capsules (hard capsule #2 WHITE OP B/C) containing 0.33 g of L-histidine alone), or control sample capsules (5 capsules containing equal volume of cellulose) for 14 days. After the completion of 14 day ingestion, a 14 day resting period was taken. After the resting period, they ingested the capsules not ingested before the resting period. […]

[6] = system: CD2F1 mice after burden of insufficient sleep; experiment: Locomotor activities in the dark phase after burden of insufficient sleep, continuous histidine administration; type: in vivo, mouse; settings: 1.2 w/v % L-histidine solution drunk for 7 days, 1.2 g/kg body weight/day; SD+His vs SD+solvent
Source text: Using CD2F1 mice (9-week-old) and as shown in the experiment protocol of FIG. 1A, the mice were chronically allowed to drink a 1.2 w/v % L-histidine solution for 7 days in the histidine ingestion group (SD+His) to achieve a dose of 1.2 g/kg body weight/day. Water was given to the control group (CON) and the solvent ingestion group (SD+solvent). Then, the sleep disorder group (SD) was burdened by insufficient sleep for one day by filling water in the breeding cage at the depth of 0.5 cm. The burden was released at 6 hr from the start of the light phase (ZT6), and the mice were placed back in the home cage and allowed to rest for 6 hr. The control group was reared without burden in the home cage. Thereafter, they were transferred into a cage set under a locomotor activity measurement infrared sensor (Digital acquisition system; NS-DAS-32, Neuroscience Inc, Tokyo, Japan) under fasting and water-deprivation. The locomotor activities were measured and the data was collected by a multidigital counter (Neuroscience Inc, Tokyo, Japan).

[7] = system: CD2F1 mice after burden of insufficient sleep; experiment: Y-maze test, short-working memory after burden of insufficient sleep, single histidine administration; type: in vivo, mouse; settings: single oral dose 1.2 g/kg body weight at ZT14; Y-maze at ZT15; SD+His vs SD+solvent
Source text: Using CD2F1 mice (9-week-old) and as shown in the experiment protocol of FIG. 3A, a burden of insufficient sleep is applied to sleep disorder group (SD) for two days. The burden was released at ZT6, and the mice were placed back in the home cage and allowed to rest for 6 hr. The control group (CON) was reared without burden in the home cage. A L-histidine solution was orally administered to a histidine administration group (SD+His) at 2 hr after the start of the dark phase after burden of insufficient sleep (ZT14), to achieve an L-histidine dose of 1.2 g/kg body weight. A solvent (water) was orally administered to the solvent administration group (SD+solvent) and the control group (CON). The Y-maze test was performed at 3 hr from the start of the dark phase (ZT15), and short-working memory was measured.

[8] = system: males feeling decrease in the sleep quality and fatigue; experiment: VAS questionnaires relating to mental energy, histidine ingestion for 14 days; type: in vivo, human; settings: 1.65 g daily for 14 days vs control food, p<0.05
Source text: Twenty males of 45 years old to less than 65 years old, who received total evaluation of not less than 17 points in the “self-diagnosis fatigue questionnaire” (Fatigue Science Laboratory Inc.) performed in advance, felt decrease in the quality of sleep (generally PSQI≥6), and obtained fatigue factor T scores of not less than 60 points in POMS, were selected, and randomly divided into 2 groups (10 per group). A crossover test, including ingesting histidine and control food (equal volume of cellulose) each for 14 days, was performed in each group. As shown in the experiment protocol of FIG. 4A, the test subjects ingested capsules containing 1.65 g of L-histidine as a daily ingestion amount (5 capsules (hard capsule #2 WHITE OP B/C) containing 0.33 g of L-histidine alone), or control sample capsules (5 capsules containing equal volume of cellulose) for 14 days. After the completion of 14 day ingestion, a 14 day resting period was taken. After the resting period, they ingested the capsules not ingested before the resting period. On the initial day and the day after completion of the capsule ingestion period, the test subjects answered POMS and the VAS questionnaires (fatigue, depression, vague sense, drowsiness, clear thinking, motivation, attentiveness, concentration) relating to mental energy, and cognitive function measurement task CogHealth (under higher difficulty conditions by simultaneously including mental arithmetic task as well) to measure recognition. Furthermore, they answered VAS questionnaires after completion of CogHealth.

[9] = system: males feeling decrease in the sleep quality and fatigue; experiment: POMS after histidine ingestion for 14 days (crossover vs control food); type: in vivo, human; settings: 1.65 g L-histidine daily for 14 days vs control food; paired t-test p<0.05
Source text: as §1

[10] = system: CD2F1 mice after burden of insufficient sleep; experiment: Locomotor activities under novel environment after burden of insufficient sleep, single histidine administration; type: in vivo, mouse; settings: single oral dose 1.2 g/kg body weight at ZT14; measured for 3 hr from ZT15; SD+His vs SD+solvent
Source text: Using CD2F1 mice (9-10-week-old) and as shown in the experiment protocol of FIG. 2A, a burden of insufficient sleep is applied to sleep disorder group (SD) for one day. The burden was released at ZT6, and the mice were placed back in the home cage and allowed to rest for 6 hr. The control group (CON) was reared without burden in the home cage. A 1.2 w/v % L-histidine solution was orally administered to a histidine administration group (SD+His) at 2 hr after the start of the dark phase after burden of insufficient sleep (ZT14), to achieve an L-histidine dose of 1.2 g/kg body weight. A solvent (water) was orally administered to the solvent administration group (SD+solvent) and the control group (CON). The locomotor activities under novel environment were measured for 3 hr from 3 hr after the start of the dark phase (ZT15).

[11] = system: mouse reared under 24 hr dark conditions; experiment: Biorhythm phase regulating action, locomotor behavioral pattern in free run cycle under 24 hr dark conditions; type: in vivo; settings: for phase shift of the behavior start time (circadian rhythm): feed with 45 mg L-histidine per 1 g, 4 hours per day for 4 days
Method: A phase regulating action of histidine on a mouse reared under 24 hr dark conditions was evaluated. When a mouse is reared under 24 hr dark conditions, the mouse starts to act in a cycle specific to the biological clock (also referred to as free run, meaning freed from synchrony), since the outside information (light-dark cycle of light) cannot be obtained. When the free run cycle is converted to 24 hr and indicated as circadian time on the horizontal axis, 12 hours of the former half thereof is called a subjective light period (time zone judged to be daytime by biological clock: CT0-12), and the latter half is called a subjective dark period (time zone judged to be night by biological clock: CT12-24). Under such conditions, locomotor activity of mice (behavioral pattern in free run cycle) was measured using an emission infrared detector type locomotor activities sensor (Digital acquisition system; NS-AS01, Neuroscience Inc, Tokyo, Japan). Furthermore, a feed added with 45 mg of L-histidine per 1 g of a general feed was prepared, and used to replace the general feed for only 4 hours in one day to allow for ingestion. The time zone for ingestion was CT2-6 (subjective light period) or CT14-18 (subjective dark period). Such replacement of the feed was performed for 4 days, and change of phase of the behavioral pattern was judged.

[12] = 1 hr after ingestion, before cognitive functioning test, p<0.05
[13] = before cognitive functioning test

For `N[C@@H](Cc1c[nH]cn1)C(=O)O` [histidine, L-histidine], the “reaction time of cognitive function measurement task” value [1] was “shortened”, the “reaction time of delayed recall task” value ([1]; paired t-test p<0.05) was “significantly decreased” and the “phase of the oscillation of expression of the clock gene” value ([2]; about 1.2 g/kg body weight per day, vs aged mice on tap water) was “suppressed phase advancement”. For the same compound, the “average phase of measured 5 clock genes compared to young mice” value ([2]; compared to young mice (4 months old)) was “reached the same level as in young mice”, the “VAS sense of concentration” value ([3]; 1 hr after ingestion, before cognitive functioning test) was “tended to increase” and the “VAS sense of attentiveness” value [3, 12] was “significantly increased”. The “VAS sense of clear thinking” value [3, 12] was “significantly increased”, the “VAS sense of concentration” value ([3]; after completion of CogHealth) was “tended to increase” and the “VAS sense of depression” value ([3]; after completion of CogHealth) was “tended to decrease”. For the same compound, the “VAS sense of vagueness” value ([3]; after completion of CogHealth, p<0.05) was “significantly decreased”, the “indices relating to cognition” value [4] was “did not show a significant change” and the “work time in 5 kinds of brain function measurement indices” value [4] was “shortened”. The “variation in general properties, hematology, and blood biochemistry” value [5] was “did not show problematic variation”, the “locomotor activities in the dark phase” value [6] was “significant suppression of a decrease of locomotor activities in the dark phase” and the “alternation behavior (short-working memory)” value [7] was “significant suppression of a decrease of alternation behavior”. For the same compound, the “VAS sense of attentiveness” value ([8]; after completion of CogHealth) was “significantly increased”, the “VAS sense of depression” value ([8]; after completion of CogHealth) was “significantly decreased” and the “VAS sense of motivation” value ([8]; after completion of CogHealth) was “significantly increased”. For the same compound, the “VAS sense of attentiveness” value [8, 13] was “significantly increased”, the “VAS sense of clear thinking” value [8, 13] was “significantly increased” and the “VAS sense of motivation” value [8, 13] was “significantly increased”. For the same compound, the “fatigue factor scores of POMS” value [9] was “significantly decreased”, the “locomotor activities under novel environment” value [10] was “tendency of suppression of a decrease in the locomotor activities” and the “phase shift of the behavior start time (circadian rhythm)” value ([11]; ingestion in CT2-6 (subjective light period)) was “significantly advances”. The “phase shift of the behavior start time (circadian rhythm)” value ([11]; ingestion in CT14-18 (subjective dark period)) was “tended to advance” and the “shortening of the cycle of activity rhythm, mean” value ([11]; ingestion of histidine in CT2-6, n=4) was 0.34 ± 0.08 h.
